Reference: patent US10272098B2, “Chelated drug delivery systems” (Drexel University, priority 2013, dated 2019)
Structures can show the parent of a compound that is named as a salt.

Tests used:
NIH 3T3 fibroblasts = experiment: Fresh DOX dose- and time-dependent treatment; assay type: cell-based; conditions: nine-day treatment with 0.2 μg/mL DOX; vs untreated control
From the text: The medium was changed every 24 hr.

[1] = cited from earlier work
MDA-MB-231 cells = experiment: Fresh DOX dose- and time-dependent treatment
3T3 fibroblast cells = experiment: Cytotoxicity cell counting assay in 3T3 fibroblasts; assay type: cell-based; conditions: 24 h; complex with 4 μg MH in 100 μl or 40 μg/mL fresh MH; vs untreated control
Method: After 24 h, cell viability was determined using a cell counting assay (Roche) according to the manufacturer's instruction, and cell morphology was imaged by staining the cells with cresyl violet (0.5 mg/mL) for 30 min after the cells were fixed. In vitro cytotoxicity of the polyelectrolyte MH/DS/metal ion complexes were studied by using 3T3 fibroblast cells. […] Cell morphology was examined after treatment with MH/DS/metal ion complexes (FIGS. 7C-7F).

[2] = systemic administration of 200 mg MH daily (3 mg/kg); human subjects; cited from earlier work

| Compound | cell viability of fibroblasts (NIH 3T3 fibroblasts) | time stock solution is stable ([1]; 4 degree) [month] | DOX degraded ([1]; cell culture medium at 37° C., 4 days) | time solution is stable ([1]; room temperature, Adriamycin instruction booklets) [days] | time in which all the cancer cells were completely killed (MDA-MB-231 cells; DOX 0.2 μg/mL) [days] | DOX concentration range that effectively kills cancer cells with minimal fibroblast cytotoxicity (MDA-MB-231 cells; for 5-9 days) [µg/mL] | 3T3 fibroblast viability (cell counting assay) (3T3 fibroblast cells) | MH in the cerebrospinal fluid (CSF) [2] |
| --- | --- | --- | --- | --- | --- | --- | --- | --- |
| COc1cccc2c1C(=O)c1c(O)c3c(c(O)c1C2=O)C[C@@](O)(C(=O)CO)C[C@@H]3O[C@H]1C[C@H](N)[C@H](O)[C@H](C)O1 [DOX, doxorubicin] | did not significantly reduce the cell viability | 1 | 30%-40% | 7 | 8 | 0.1 to 0.4 | – | – |
| CN(C)c1ccc(O)c2c1C[C@H]1C[C@H]3[C@H](N(C)C)C(O)=C(C(N)=O)C(=O)[C@@]3(O)C(O)=C1C2=O [MH, Minocycline hydrochloride] | – | – | – | – | – | – | no significant difference | about 0.5 μg/mL |
